Where two headings read alike, the source gives them in different places.
How the values were obtained:
[1] = target: T1, human MAO B (Homo sapiens, UniProt P27338); assay: Human MAO B inhibition, fluorometric method; type: biochemical; conditions: mean of two independent experiments, read-out: % of hMAO B Inhibition at 1 µM
T1 sequence (P27338 1-520): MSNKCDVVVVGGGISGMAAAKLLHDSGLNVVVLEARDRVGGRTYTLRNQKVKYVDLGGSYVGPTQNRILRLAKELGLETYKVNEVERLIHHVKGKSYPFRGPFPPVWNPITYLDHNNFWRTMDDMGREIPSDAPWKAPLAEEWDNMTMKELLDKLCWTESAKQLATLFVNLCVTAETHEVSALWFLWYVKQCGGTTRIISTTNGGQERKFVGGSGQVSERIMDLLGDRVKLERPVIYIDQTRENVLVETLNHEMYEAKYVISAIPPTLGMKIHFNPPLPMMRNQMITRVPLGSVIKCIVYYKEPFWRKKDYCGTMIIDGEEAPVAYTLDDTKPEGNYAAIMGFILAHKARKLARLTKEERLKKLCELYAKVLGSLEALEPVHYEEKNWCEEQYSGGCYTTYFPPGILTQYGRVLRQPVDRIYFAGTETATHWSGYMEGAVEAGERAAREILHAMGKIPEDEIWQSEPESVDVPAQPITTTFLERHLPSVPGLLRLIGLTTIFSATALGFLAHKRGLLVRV
Procedure: The compounds were tested twice in duplicates at a concentration of 1 μM by fluorometric method as previously described. Paratyramine (200 μM) was used as a substrate for the enzyme. Safinamide (1 μM; reversible) and rasagiline (1 μM; irreversible) were used as reference inhibitors.

[2] = PAMPA blood brain barrier permeability; type: in vitro ADME
Procedure: The ability of compounds, especially those intended to act in the CNS, to penetrate the blood-brain barrier (BBB) is an important property to consider in the initial stages of drug candidate screening. The PAMPA assay is a commonly used test to assess the passive permeation of the BBB [17]. In our study, caffeine was used as a highly permeable compound. […] After 5 h of incubation at room temperature, the results were analyzed by LC-MS, and the permeability coefficients (Pe) were calculated.
For permeability evaluation, a PAMPA Gentest™ pre-coated […] system, provided by Corning (Tewksbury, MA, USA), was used. The precise procedure was previously described. The permeability coefficient Pe was calculated based on the given equations. Concentrations of the tested compounds in the apical and basolateral wells were determined by LC/MS analysis using an internal standard.

[3] = test system: HepG2 cells; assay: Hepatotoxicity, MTS cell viability; type: cell-based, human; conditions: 0.098 μM to 100 μM, 48 h
Procedure: Drug safety is a critical step in the process of drug development. […] In our studies, neurotoxicity and hepatotoxicity were evaluated in SH-SY5Y and HepG2 cells, respectively. The compounds were tested at 11 concentrations from 0.098 μM to 100 μM (see Figure 5). Cell viability was assessed after incubation for 24 h with the SH-SY5Y line and for 48 h with the HepG2 line.
To evaluate neurotoxicity and hepatotoxicity, the human neuroblastoma cell line SH-SY5Y (ATCC® no. CRL-2266™) and hepatoma cell line HepG2 (ATCC® no. HB-8065™) were used, respectively. The cells (SH-SY5Y: 5 × 10^3 cells/100μL/well and HepG2: 7 × 10^3 cells/100 μL/well) were seeded in transparent 96-well plates (Nunc) in DMEM supplemented with 10% FBS and cultured overnight. The next day, the medium was changed to medium containing dimethylsulfoxide (DMSO < 0.1%, vehicle control) or an increasing concentration of compounds MZ-1483 (19), MZ-1490 (22) and MZ-1495 (24) ([…]–100 × 10^−6 M). To perform dose-response analysis, two-fold serial dilutions (11 points) were prepared. Treatment with compounds was performed for 48 h. After the incubation time, the cell viability was examined using an MTS-based [3-(4,5-dimethylthiazol-2-yl)-5-(3-carboxymethoxyphenyl)-2-(4-sulfophenyl)-2 H tetrazolium] CellTiter96® AQueous One Solution Cell Proliferation Assay (Promega, Madison, WI, USA) following the manufacturer’s protocol. Briefly, 20 μL of MTS solution was pipetted into each well containing 100 μL of culture or culture medium (negative control) and incubated at 37 °C for 1 h. After incubation time, formazan product turnover absorbance was measured at 490 nm using the microplate reader (Tecan Spark®, Tecan Group Ltd., Maennedorf, Switzerland). A reference wavelength of 630 nm was used.

[4] = Precipitation in culture medium seen under inverted microscope; type: physicochemical; conditions: 25 μM, 50 μM, 100 μM
[5] = Metabolic stability in human liver microsomes; type: in vitro ADME; conditions: for number of metabolites formed: HLMs, 120 min; for remaining at 2 h: human, liver microsomes, after 120 min of incubation with HLMs, read-out: % Remaining in the Reaction Mixture
Procedure: In our study, the compounds were incubated for 120 min with HLMs, followed by liquid chromatography-mass spectrometry (LC-MS) to identify the formed metabolites.
Human liver microsomes (HLMs) were purchased from Sigma-Aldrich (St. Louis, MO, USA; catalog nr M9066-1VL). The studies with microsomes were supported by MetaSite 6.0.1 software provided by Molecular Discovery Ltd. (Hertfordshire, UK), which allowed for the determination of the most probable sites of metabolism. The compounds were incubated with HLMs for 120 min. After the addition of methanol and centrifugation, the supernatants were analyzed with the Waters ACQUITY™ TQD system (Waters, Milford, CT, USA). All reference drugs used (caffeine, ketoconazole, quinidine and sulfaphenazole) were purchased from Sigma-Aldrich (St. Louis, MO, USA).

[6] = 100 μM in PBS, 5 h, room temperature, triplicate
[7] = 100 μM in PBS, 5 h, room temperature, triplicate, read-out: Pe ± SD

Compound | inhibition at 1 µM [1] | Drug Retention [2] | Pe ± SD [2, 6] | Papp at 5 h, 100 μM [2, 7] | Papp at 5 h, 100 μM ([2]; read-out: Permeable) | hepatotoxicity, cell viability (in words) [3] | behaviour in the culture medium at the highest concentrations [4] | number of metabolites formed [5] | remaining at 2 h [5]
C#CCn1c(=O)c2c(nc(NCc3cccc(Br)c3)n2C)n(C)c1=O [compound 24, 8-((3-Bromobenzyl)amino)-3,7-dimethyl-1-(prop-2-yn-1-yl)-3,7-dihydro-1H-purine-2,6-dione] | 10% | 93.30% | 0.89 10^−6 cm/s | 0.89 ± 0.71 ×10⁻⁶ cm/s | ≤ 1.5 ×10⁻⁶ cm/s | high safety profile | precipitated and formed crystals in the culture medium | one metabolite | > 95%
C#CCn1c(=O)c2c(nc(NCc3ccccc3Cl)n2C)n(C)c1=O [compound 19, 8-((2-Chlorobenzyl)amino)-3,7-dimethyl-1-(prop-2-yn-1-yl)-3,7-dihydro-1H-purine-2,6-dione] | 6% | 51.78% | greater than 1.5 10^−6 cm/s | 3.13 ± 0.82 ×10⁻⁶ cm/s | ≥ 1.5 ×10⁻⁶ cm/s | high safety profile | precipitated and formed crystals in the culture medium | two metabolites | > 95%
C#CCn1c(=O)c2c(nc(NCc3c(F)cccc3Cl)n2C)n(C)c1=O [compound 22, 8-((2-Chloro-6-fluorobenzyl)amino)-3,7-dimethyl-1-(prop-2-yn-1-yl)-3,7-dihydro-1H-purine-2,6-dione] | 7% | 68.62% | 0.37 10^−6 cm/s | 0.37 ± 0.01 ×10⁻⁶ cm/s | ≤ 1.5 ×10⁻⁶ cm/s | high safety profile | precipitated and formed crystals in the culture medium | one metabolite | > 90%

— publication PMC10531311, “Anti-Inflammatory Activities of 8-Benzylaminoxanthines Showing High Adenosine A2A and Dual A1/A2A Receptor Affinity” (International Journal of Molecular Sciences, 2023)
